Measurements published in ChEMBL document CHEMBL5325497, “Facilitated Drug Repurposing with Artemisinin-Derived PROTACs: Unveiling PCLAF as a Therapeutic Target” (J Med Chem, 2023).
Active and inactive are the calls of the source. No cut-off for these calls is given here.

What was measured:
RPMI-8226 = test: Antiproliferative activity against human RPMI-8226 cells assessed as cell growth inhibition incubated for 48 hrs by CCK8 colorimetric assay; assay type: functional, cell-based; settings: RPMI-8226, 48 h
PCNA-associated factor = target: T1, PCNA-associated factor (Homo sapiens, UniProt Q15004); test: Binding affinity to PCLAF (unknown origin) assessed as equilibrium dissociation constant by SPR assay
T1 sequence (Q15004 whole entry): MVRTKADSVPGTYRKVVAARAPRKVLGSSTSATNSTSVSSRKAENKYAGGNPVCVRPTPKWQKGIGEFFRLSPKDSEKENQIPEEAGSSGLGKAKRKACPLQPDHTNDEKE

U-266 = test: Antiproliferative activity against human U266B1 cells assessed as cell growth inhibition incubated for 48 hrs by CCK8 colorimetric assay; assay type: functional, cell-based; settings: U-266, 48 h
RS4-11 [1] = test: Antiproliferative activity against human RS4-11 cells assessed as cell growth inhibition incubated for 48 hrs by CCK8 colorimetric assay; assay type: functional, cell-based; settings: RS4-11, 48 h
[2] = Toxicity in NOD/SCID mouse xenografted with human RS4-11 cells assessed as maximum tolerated dose at IV administration for 5 consecutive days; settings: in vivo
[3] = target: T2, Protein cereblon/PCNA-associated factor (Homo sapiens, UniProt Q15004+Q96SW2); test: PROTAC activity at CRBN/PCLAF in human RS4-11 cells assessed as maximal degradation of PCLAF protein at 24 hr by Western blotting analysis; assay type: cell-based
Target sequence in this assay (Q96SW2 whole entry, looked up, one chain of several): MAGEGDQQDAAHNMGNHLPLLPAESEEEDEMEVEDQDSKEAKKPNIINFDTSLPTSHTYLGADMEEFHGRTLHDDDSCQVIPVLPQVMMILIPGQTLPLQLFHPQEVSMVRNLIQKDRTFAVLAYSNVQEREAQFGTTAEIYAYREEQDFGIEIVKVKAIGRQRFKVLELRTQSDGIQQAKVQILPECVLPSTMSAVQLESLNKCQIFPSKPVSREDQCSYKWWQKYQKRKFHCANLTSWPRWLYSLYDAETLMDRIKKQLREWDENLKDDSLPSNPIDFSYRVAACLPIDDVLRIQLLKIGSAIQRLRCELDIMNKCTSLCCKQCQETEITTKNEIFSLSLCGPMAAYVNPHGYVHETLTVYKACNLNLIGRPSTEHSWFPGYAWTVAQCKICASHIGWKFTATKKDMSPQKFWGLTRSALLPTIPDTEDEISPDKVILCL

RS4-11 [4] = test: Induction of apoptosis in human RS4-11 cells assessed as downregulation of Bcl-2 level at 10 to 100 nM by Western blotting analysis; assay type: functional, cell-based; settings: dose 10-100 nM
RS4-11 [5] = test: Induction of apoptosis in human RS4-11 cells incubated for 48 hrs Annexin V-FITC/PI staining based flow cytometry analysis; assay type: functional, cell-based
[6] = target: T2, Protein cereblon/PCNA-associated factor; test: PROTAC activity at CRBN/PCLAF in human RS4-11 cells assessed as downregulation of Rb phosphorylation at 10 to 100 nM by Western blotting analysis; assay type: cell-based; settings: dose 10-100 nM
Target sequence in this assay (Q96SW2 whole entry, looked up, one chain of several): as above

[7] = Toxicity in NOD/SCID mouse xenografted with human RS4-11 cells assessed as change in body weight at 25 mg/kg,iv qd administration for 5 consecutive days; assay type: organism-based; settings: in vivo
[8] = target: T2, Protein cereblon/PCNA-associated factor; test: PROTAC activity at CRBN/PCLAF in human RS4-11 cells assessed as degradation of PCLAF protein at 100 nM incubated for 12 hrs in presence of pomalidomide by Western blotting analysis; assay type: cell-based
Target sequence in this assay (Q96SW2 whole entry, looked up, one chain of several): as above

RS4-11 [9] = test: Induction of apoptosis in human RS4-11 cells assessed as increase in early apoptosis at 10 to 200 nM incubated for 48 hrs Annexin V-FITC/PI staining based flow cytometry analysis; assay type: functional, cell-based; settings: dose 10-200 nM
[10] = Toxicity in NOD/SCID mouse xenografted with human RS4-11 cells assessed as change in body weight at 1 mg/kg,iv qd administration for 5 consecutive days; assay type: organism-based; settings: in vivo
[11] = Toxicity in NOD/SCID mouse xenografted with human RS4-11 cells assessed as pathological change in kidney at 25 mg/kg,iv qd administration for 5 consecutive days by hematoxylin and eosin staining based microscopic analysis; assay type: organism-based; settings: in vivo
[12] = target: T2, Protein cereblon/PCNA-associated factor; test: PROTAC activity at CRBN/PCLAF in human RS4-11 cells assessed as degradation of PCLAF protein at 100 nM incubated for 12 hrs in presence of SM1044 by Western blotting analysis; assay type: cell-based
Target sequence in this assay (Q96SW2 whole entry, looked up, one chain of several): as above

[13] = target: T2, Protein cereblon/PCNA-associated factor; test: PROTAC activity at CRBN/PCLAF in human RS4-11 cells assessed as degradation of PCLAF protein at 40 nM incubated for 40 mins by DARTS analysis; assay type: cell-based
Target sequence in this assay (Q96SW2 whole entry, looked up, one chain of several): as above

[14] = Oral bioavailability in Sprague-Dawley rat at 50 mg/kg measured upto 24 hrs by LC-MS/MS analysis; assay type: ADME, organism-based; settings: in vivo
[15] = target: T2, Protein cereblon/PCNA-associated factor; test: PROTAC activity at CRBN/PCLAF in human RS4-11 cells assessed as degradation of PCLAF protein at 100 nM incubated for 12 hrs in presence of MG132 by Western blotting analysis; assay type: cell-based
Target sequence in this assay (Q96SW2 whole entry, looked up, one chain of several): as above

[16] = Toxicity in NOD/SCID mouse xenografted with human RS4-11 cells assessed as pathological change in liver at 25 mg/kg,iv qd administration for 5 consecutive days by hematoxylin and eosin staining based microscopic analysis; assay type: organism-based; settings: in vivo
[17] = target: T2, Protein cereblon/PCNA-associated factor; test: PROTAC activity at CRBN/PCLAF in human RS4-11 cells assessed as degradation of PCLAF protein at 100 nM incubated for 12 hrs by Western blotting analysis; assay type: cell-based
RS4-11 [18] = test: Induction of apoptosis in human RS4-11 cells assessed as upregulation of Bax level at 10 to 100 nM by Western blotting analysis; assay type: functional, cell-based; settings: dose 10-100 nM
[19] = Toxicity in NOD/SCID mouse xenografted with human RS4-11 cells assessed as adverse effect at 1 mg/kg,iv qd administration for 5 consecutive days; assay type: organism-based; settings: in vivo
RS4-11 [20] = test: Induction of apoptosis in human RS4-11 cells assessed as increase in late apoptosis at 10 to 200 nM incubated for 48 hrs Annexin V-FITC/PI staining based flow cytometry analysis; assay type: functional, cell-based; settings: dose 10-200 nM
RS4-11 [21] = test: Induction of cell cycle arrest in human RS4-11 cells assessed as accumulation of cells at G1 phase incubated for 48 hrs by propidium iodide staining based flow cytometry analysis; assay type: functional
[22] = target: T3, PCNA-associated factor (Homo sapiens) (UniProt Q15004); test: Binding affinity to PCLAF in human RS4-11 cells assessed as thermal stability at 100 uM incubated for 60 mins by CETSA assay; assay type: cell-based
T3 sequence (whole entry): T1 sequence (Q15004 whole entry)

[23] = target: T2, Protein cereblon/PCNA-associated factor; test: PROTAC activity at CRBN/PCLAF in human RS4-11 cells assessed as degradation of PCLAF protein by Western blotting analysis; assay type: cell-based
Target sequence in this assay (Q96SW2 whole entry, one chain of several): as the sequence (Q96SW2 whole entry, looked up, one chain of several) above

RS4-11 [24] = test: Antitumor activity against human RS4-11 cells xenografted in NOD/SCID mouse assessed as increase in survival day at IV administration for 5 consecutive days; assay type: functional
[25] = target: T2, Protein cereblon/PCNA-associated factor; test: PROTAC activity at CRBN/PCLAF in human RS4-11 cells assessed as maximal degradation of PCLAF protein by Western blotting analysis relative to control; assay type: cell-based
[26] = target: T2, Protein cereblon/PCNA-associated factor; test: PROTAC activity at CRBN/PCLAF in human RS4-11 cells assessed as degradation of PCLAF protein at 4 hr by Western blotting analysis; assay type: cell-based
[27] = target: T2, Protein cereblon/PCNA-associated factor; test: PROTAC activity at CRBN/PCLAF in human RS4-11 cells assessed as degradation of PCLAF protein at 100 nM measured after 24 hr of compound washout by Western blotting analysis; assay type: cell-based
[28] = Toxicity in NOD/SCID mouse xenografted with human RS4-11 cells assessed as pathological change in heart at 25 mg/kg,iv qd administration for 5 consecutive days by hematoxylin and eosin staining based microscopic analysis; assay type: organism-based; settings: in vivo
[29] = target: T2, Protein cereblon/PCNA-associated factor; test: PROTAC activity at CRBN/PCLAF in human RS4-11 cells assessed as degradation of PCLAF protein at 10 to 100 nM by Western blotting analysis; assay type: cell-based; settings: dose 10-100 nM
[30] = Toxicity in NOD/SCID mouse xenografted with human RS4-11 cells assessed as change in body weight at 5 mg/kg,iv qd administration for 5 consecutive days; assay type: organism-based; settings: in vivo
RS4-11 [31] = test: Antitumor activity against human RS4-11 cells xenografted in NOD/SCID mouse assessed as tumor growth inhibition at 5 mg/kg,iv administration for 5 consecutive days; assay type: functional, organism-based
[32] = Toxicity in NOD/SCID mouse xenografted with human RS4-11 cells assessed as adverse effect at 5 mg/kg,iv qd administration for 5 consecutive days; assay type: organism-based; settings: in vivo
[33] = target: T2, Protein cereblon/PCNA-associated factor; test: PROTAC activity at CRBN/PCLAF in human RS4-11 cells assessed as upregulation of p21 protein at 10 to 100 nM by Western blotting analysis; assay type: cell-based; settings: dose 10-100 nM
RS4-11 [34] = test: Antitumor activity against human RS4-11 cells xenografted in NOD/SCID mouse assessed as tumor growth inhibition at 1 mg/kg,iv administration for 5 consecutive days; assay type: functional, organism-based

SMILES: C[C@H]1[C@@H](OCCNCCO[C@H]2O[C@@H]3O[C@]4(C)CC[C@H]5[C@H](C)CC[C@@H]([C@H]2C)[C@@]35OO4)O[C@@H]2O[C@]3(C)CC[C@H]4[C@H](C)CC[C@@H]1[C@@]24OO3
- IC50 (RPMI-8226): > 1 µM
- Kd (PCNA-associated factor): 183 µM
- IC50 (U-266): > 1 µM
- IC50 (RS4-11 [1]): 0.641 µM

SMILES: C[C@@H]1CCC2[C@@H](C)[C@@H](OCCN(CCO[C@H]3O[C@@H]4O[C@@]5(C)CCC6[C@H](C)CCC([C@H]3C)[C@]64OO5)C(=O)CCCCCCCNc3cccc4c3C(=O)N(C3CCC(=O)NC3=O)C4=O)O[C@@H]3O[C@@]4(C)CCC1[C@@]23OO4 (stereo partly drawn)
- MTD at 5 days [2]: 25 mg/kg
- Activity [3]: Active
- Activity (RS4-11 [4]): Active
- Activity (RS4-11 [5]): Dose-Dependent Effect
- Activity [6]: Active
- Activity [7]: Non-Toxic
- Activity [8]: inactive
- Activity (RS4-11 [9]): Active
- Activity [10]: Non-Toxic
- Activity [11]: Non-Toxic
- Activity [12]: inactive
- Activity [13]: inactive
- bioavailability [14]: 24%
- Activity [15]: inactive
- Activity [16]: Non-Toxic
- Activity [17]: Active
- IC50 (RPMI-8226): 0.235 µM
- Kd (PCNA-associated factor): 6.1 µM
- Activity (RS4-11 [18]): Active
- Activity [19]: Non-Toxic
- Activity (RS4-11 [20]): Active
- Activity (RS4-11 [21]): Dose-Dependent Effect
- Activity [22]: Active
- DC50 [23]: 0.0549 µM
- Activity (RS4-11 [24]): Dose-Dependent Effect
- Emax [25]: 95%
- Activity [26]: Active
- Activity [27]: inactive
- IC50 (U-266): 0.343 µM
- Activity [28]: Non-Toxic
- Activity [29]: Active
- Activity [30]: Non-Toxic
- Activity (RS4-11 [31]): Active
- Activity [32]: Non-Toxic
- Activity [33]: Active
- IC50 (RS4-11 [1]): 0.0506 µM
- Activity (RS4-11 [34]): Active

SMILES: C[C@@H]1CCC2[C@@H](C)[C@@H](OCCN(CCO[C@H]3O[C@@H]4O[C@@]5(C)CCC6[C@H](C)CCC([C@H]3C)[C@]64OO5)C(=O)CCCCCCNc3cccc4c3C(=O)N(C3CCC(=O)NC3=O)C4=O)O[C@@H]3O[C@@]4(C)CCC1[C@@]23OO4 (stereo partly drawn)
- IC50 (RPMI-8226): 0.104 µM
- IC50 (U-266): 0.265 µM
- IC50 (RS4-11 [1]): 0.0794 µM

SMILES: C[C@@H]1CCC2[C@@H](C)[C@@H](OCCN(CCO[C@H]3O[C@@H]4O[C@@]5(C)CCC6[C@H](C)CCC([C@H]3C)[C@]64OO5)C(=O)CCCCCCCCNc3cccc4c3C(=O)N(C3CCC(=O)NC3=O)C4=O)O[C@@H]3O[C@@]4(C)CCC1[C@@]23OO4 (stereo partly drawn)
- IC50 (RPMI-8226): 0.322 µM
- IC50 (U-266): 0.407 µM
- IC50 (RS4-11 [1]): 0.0724 µM

SMILES: C[C@@H]1CCC2[C@@H](C)[C@@H](OCCN(CCO[C@H]3O[C@@H]4O[C@@]5(C)CCC6[C@H](C)CCC([C@H]3C)[C@]64OO5)C(=O)CCCCNc3cccc4c3C(=O)N(C3CCC(=O)NC3=O)C4=O)O[C@@H]3O[C@@]4(C)CCC1[C@@]23OO4 (stereo partly drawn)
- IC50 (RPMI-8226): > 1 µM
- IC50 (U-266): > 1 µM
- IC50 (RS4-11 [1]): 0.243 µM

SMILES: C[C@@H]1CCC2[C@@H](C)[C@@H](OCCN(CCO[C@H]3O[C@@H]4O[C@@]5(C)CCC6[C@H](C)CCC([C@H]3C)[C@]64OO5)C(=O)CCCCCNc3cccc4c3C(=O)N(C3CCC(=O)NC3=O)C4=O)O[C@@H]3O[C@@]4(C)CCC1[C@@]23OO4 (stereo partly drawn)
- IC50 (RPMI-8226): 0.148 µM
- IC50 (U-266): 0.543 µM
- IC50 (RS4-11 [1]): 0.0968 µM
